System: LKS^− cells
Experiment: Serum-free culture of LKS- myeloid/erythroid progenitors (and CMP, GMP subsets), F4/80 by flow cytometry
Assay type: cell-based, mouse
Details: 72 h, compared with CSF stimulation
Procedure: FIGS. 4A-D—Activation of TLRs through MyD88 bypasses normal differentiation cues and drives monocytes/macrophages differentiation of myeloid progenitors. (FIG. 4A) Sorted LKS^− cells from C57BL/6 or MyD88^−/− mice were stimulated with medium alone, LPS (10 μg/ml), Pam3CSK4 (1 μg/ml), M-CSF, or GM-CSF. After 72 h in culture, cells were analyzed by flow cytometry for expression of F4/80. Open histograms depict staining with the isotype matched Ab for F4/80. Percentages given in each histogram indicate the frequencies of F4/80^+ cells and the results are representative of three independent experiments. (FIG. 4B) The bar graph depicts yields, i.e., numbers of F4/80^+ cell recovered per input progenitor. Data represent mean values with standard deviations from triplicate cultures and the results are representative of three independent experiments (*P<0.005). […] After 72 h in culture, cells were analyzed by flow cytometry for expression of F4/80. […] After 24 or 48 h in culture, cells were analyzed by flow cytometry for expression of F4/80. […]
FIG. 13—TLR stimulation causes rapid production of F4/80^+ cells from LKS^− cells. […] Stimulated wells were analyzed after 24 h or 48 h of culture by flow cytometry for expression of F4/80. […]

Substance: Pam3CSK4
- Yields of F4/80+ cells from LKS- cells: consistently a less potent stimulus

From patent US7592003B2, “Regulation of toll-like receptors on stem cells” (Oklahoma Medical Research Foundation, priority 2005, dated 2009)
